In patent US12590091B2, “1H-pyrrolo[3,2-C]pyridine and 1H-pyrrolo[2,3-C]pyridine derivatives as TLR9 inhibitors for the treatment of fibrosis” (BRISTOL-MYERS SQUIBB COMPANY, priority 2020, dated 2026):

What was measured:
human TLR8 = target: T1, human TLR8 (Homo sapiens, UniProt Q9NR97); assay: TLR8 inhibition reporter assay (HEK-Blue cells, SEAP reporter); format: cell-based; conditions: HEK-Blue cells overexpressing human TLR8, stimulated with R848 15.9 μM, 22 hour incubation
T1 construct: host or cells: HEK-Blue cells
T1 sequence (Q9NR97 27-1041): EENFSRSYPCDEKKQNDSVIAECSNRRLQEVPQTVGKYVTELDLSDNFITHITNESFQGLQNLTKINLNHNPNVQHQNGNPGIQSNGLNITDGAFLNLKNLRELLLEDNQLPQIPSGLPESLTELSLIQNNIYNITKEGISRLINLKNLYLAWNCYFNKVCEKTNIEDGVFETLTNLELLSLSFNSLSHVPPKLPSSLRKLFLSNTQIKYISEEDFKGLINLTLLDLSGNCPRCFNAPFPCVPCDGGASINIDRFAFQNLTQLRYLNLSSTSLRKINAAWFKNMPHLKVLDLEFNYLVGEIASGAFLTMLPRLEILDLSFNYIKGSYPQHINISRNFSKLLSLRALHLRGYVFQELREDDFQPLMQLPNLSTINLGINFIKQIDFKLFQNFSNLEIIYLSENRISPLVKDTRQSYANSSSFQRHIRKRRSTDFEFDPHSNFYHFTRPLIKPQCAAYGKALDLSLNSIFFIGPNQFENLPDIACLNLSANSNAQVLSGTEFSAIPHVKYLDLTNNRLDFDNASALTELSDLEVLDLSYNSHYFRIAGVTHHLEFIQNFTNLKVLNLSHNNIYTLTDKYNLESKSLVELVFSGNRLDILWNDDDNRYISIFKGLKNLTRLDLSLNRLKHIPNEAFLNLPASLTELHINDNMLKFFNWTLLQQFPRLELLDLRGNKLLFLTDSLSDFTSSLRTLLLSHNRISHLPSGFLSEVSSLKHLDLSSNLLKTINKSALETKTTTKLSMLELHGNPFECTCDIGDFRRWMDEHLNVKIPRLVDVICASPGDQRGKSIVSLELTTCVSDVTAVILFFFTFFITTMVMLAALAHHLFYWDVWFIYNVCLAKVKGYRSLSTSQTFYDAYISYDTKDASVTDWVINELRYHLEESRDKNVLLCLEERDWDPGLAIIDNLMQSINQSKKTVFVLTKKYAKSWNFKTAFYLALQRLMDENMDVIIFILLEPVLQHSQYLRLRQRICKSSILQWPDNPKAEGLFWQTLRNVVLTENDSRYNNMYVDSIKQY
How it was run: (§1)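 Agonists used: gardiquimod 7.5 μM (TLR7), R848 15.9 μM (TLR8), ODN2006 5 nM (TLR9), added after 30 min room-temperature compound pre-treatment (0.05 nM–50 μM) of receptor-overexpressing HEK-Blue cells. SEAP reporter (NF-κB/AP-1 driven) read after 22 h at 37 °C; inhibition scaled between agonist+DMSO and reference-inhibitor wells.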

human TLR7 = target: T2, human TLR7 (Homo sapiens, UniProt Q9NYK1); assay: TLR7 inhibition reporter assay (HEK-Blue cells, SEAP reporter); format: cell-based; conditions: HEK-Blue cells overexpressing human TLR7, stimulated with gardiquimod 7.5 μM, 22 hour incubation
T2 construct: host or cells: HEK-Blue cells
T2 sequence (Q9NYK1 27-1049): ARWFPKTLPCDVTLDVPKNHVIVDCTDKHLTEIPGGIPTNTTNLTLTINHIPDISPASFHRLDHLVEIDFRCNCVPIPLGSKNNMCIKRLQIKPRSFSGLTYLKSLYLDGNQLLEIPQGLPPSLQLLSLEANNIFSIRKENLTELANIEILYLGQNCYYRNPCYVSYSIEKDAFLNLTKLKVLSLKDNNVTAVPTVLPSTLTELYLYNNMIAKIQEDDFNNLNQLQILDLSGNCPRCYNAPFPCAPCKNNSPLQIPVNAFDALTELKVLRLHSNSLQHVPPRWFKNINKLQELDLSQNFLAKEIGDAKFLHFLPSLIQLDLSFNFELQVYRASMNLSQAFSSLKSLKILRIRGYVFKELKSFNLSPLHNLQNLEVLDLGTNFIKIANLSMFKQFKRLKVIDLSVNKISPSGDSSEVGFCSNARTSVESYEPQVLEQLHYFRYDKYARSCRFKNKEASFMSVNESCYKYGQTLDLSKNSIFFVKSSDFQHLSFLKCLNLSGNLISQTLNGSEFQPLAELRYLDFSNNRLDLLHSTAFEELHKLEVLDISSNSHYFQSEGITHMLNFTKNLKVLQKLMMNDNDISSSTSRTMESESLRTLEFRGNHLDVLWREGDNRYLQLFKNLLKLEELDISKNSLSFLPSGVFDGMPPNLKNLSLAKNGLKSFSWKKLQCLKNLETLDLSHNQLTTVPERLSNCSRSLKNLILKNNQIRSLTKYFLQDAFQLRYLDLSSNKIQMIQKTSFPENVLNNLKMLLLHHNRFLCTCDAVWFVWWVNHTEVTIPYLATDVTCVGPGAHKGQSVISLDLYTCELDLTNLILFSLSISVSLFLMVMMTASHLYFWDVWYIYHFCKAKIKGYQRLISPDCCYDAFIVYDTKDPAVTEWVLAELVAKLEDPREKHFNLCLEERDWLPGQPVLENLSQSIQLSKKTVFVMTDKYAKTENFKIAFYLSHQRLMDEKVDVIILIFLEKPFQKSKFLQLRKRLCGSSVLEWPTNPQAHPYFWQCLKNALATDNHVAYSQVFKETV
How it was run: as §1

| SMILES | IC50 (human TLR8) [µM] | IC50 (human TLR7) [µM] |
| --- | --- | --- |
| Cc1nc(-c2ccc(C3(O)CCN(CC(C)C)CC3)c(F)c2)cc2c1cc(-c1ccc(S(C)(=O)=O)cc1)n2C [Example 90, 4-(4-(1,4-dimethyl-2-(4-(methylsulfonyl)phenyl)-1H-pyrrolo[3,2-c]pyridin-6-yl)-2-fluorophenyl)-1-isobutylpiperidin-4-ol] | 22.1 | 7.8 |
| Cc1nc(-c2cc(F)c(C3(O)CCN(C4CC4)CC3)cc2F)cc2c1cc(-c1ccc(S(C)(=O)=O)cc1)n2C [Example 96, 1-cyclopropyl-4-(4-(1,4-dimethyl-2-(4-(methylsulfonyl)phenyl)-1H-pyrrolo[3,2-c]pyridin-6-yl)-2,5-difluorophenyl)piperidin-4-ol] | 4.1 | 2.9 |
| Cc1nc(-c2cc(F)c(C3(O)CCN(CC(C)C)CC3)cc2F)cc2c1cc(-c1ccc(S(C)(=O)=O)cc1)n2C [Example 94, 4-(4-(1,4-dimethyl-2-(4-(methylsulfonyl)phenyl)-1H-pyrrolo[3,2-c]pyridin-6-yl)-2,5-difluorophenyl)-1-isobutylpiperidin-4-ol] | 2.5 | 3.6 |
| Cc1nc(-c2cc(F)c(N3CCN(C4CCOCC4)CC3)c(F)c2)cc2c1cc(-c1ccc(S(C)(=O)=O)cc1)n2C [Example 89, 6-(3,5-difluoro-4-(4-(tetrahydro-2H-pyran-4-yl)piperazin-1-yl)phenyl)-1,4-dimethyl-2-(4-(methylsulfonyl)phenyl)-1H-pyrrolo[3,2-c]pyridine] | > 50 | > 50 |
| COCCN1CCC(O)(c2cc(F)c(-c3cc4c(cc(-c5ccc(S(C)(=O)=O)cc5)n4C)c(C)n3)cc2F)CC1 [Example 95, 4-(4-(1,4-dimethyl-2-(4-(methylsulfonyl)phenyl)-1H-pyrrolo[3,2-c]pyridin-6-yl)-2,5-difluorophenyl)-1-(2-methoxyethyl)piperidin-4-ol] | 2.7 | 3.2 |
| Cc1nc(-c2cc(F)c(N3CCN4CCCC4C3)c(F)c2)cc2c1cc(-c1ccc(S(C)(=O)=O)cc1)n2C (stereo not drawn) [Example 98, 6-(3,5-difluoro-4-(hexahydropyrrolo[1,2-a]pyrazin-2(1H)-yl)phenyl)-1,4-dimethyl-2-(4-(methylsulfonyl)phenyl)-1H-pyrrolo[3,2-c]pyridine] | > 50 | 0.7 |
| Cc1nc(-c2ccc(C3(O)CC4CCC(C3)N4CC(C)C)c(F)c2)cc2c1cc(-c1ccc(S(C)(=O)=O)cc1)n2C [Example 91, (1R,3r,5S)-3-(4-(1,4-dimethyl-2-(4-(methylsulfonyl)phenyl)-1H-pyrrolo[3,2-c]pyridin-6-yl)-2-fluorophenyl)-8-isobutyl-8-azabicyclo[3.2.1]octan-3-ol] | 1.3 | 30.8 |
| Cc1nc(-c2cc(F)c(N3CCN4CCCC4C3)cc2F)cc2c1cc(-c1ccc(S(C)(=O)=O)cc1)n2C (stereo not drawn) [Example 97, 6-(2,5-difluoro-4-(hexahydropyrrolo[1,2-a]pyrazin-2(1H)-yl)phenyl)-1,4-dimethyl-2-(4-(methylsulfonyl)phenyl)-1H-pyrrolo[3,2-c]pyridine] | 5.3 | 3.8 |
| COc1ccc(-c2cc3cnc(C4CCN(Cc5ccc(C)nc5)CC4)cc3n2C)cc1OC [Example 8, 2-(3,4-Dimethoxyphenyl)-1-methyl-6-(1-((6-methylpyridin-3-yl)methyl)piperidin-4-yl)-1H-pyrrolo[3,2-c]pyridine] | 25.9 | 6.8 |
| CCOC(=O)N1CCC(N2CCC(c3cc4c(cn3)cc(-c3ccc(OC)c(OC)c3)n4C)CC2)CC1 [Example 7, Ethyl 4-(2-(3,4-dimethoxyphenyl)-1-methyl-1H-pyrrolo[3,2-c]pyridin-6-yl)-[1,4′-bipiperidine]-1′-carboxylate] | 5.2 | > 50 |
| Cc1nc(-c2ccc(C3(O)CCN(C4CC4)CC3)c(F)c2)cc2c1cc(-c1ccc(S(C)(=O)=O)cc1)n2C [Example 93, 1-cyclopropyl-4-(4-(1,4-dimethyl-2-(4-(methylsulfonyl)phenyl)-1H-pyrrolo[3,2-c]pyridin-6-yl)-2-fluorophenyl)piperidin-4-ol] | > 50 | 9.9 |
| COCCN1CCC(O)(c2ccc(-c3cc4c(cc(-c5ccc(S(C)(=O)=O)cc5)n4C)c(C)n3)cc2F)CC1 [Example 92, 4-(4-(1,4-dimethyl-2-(4-(methylsulfonyl)phenyl)-1H-pyrrolo[3,2-c]pyridin-6-yl)-2-fluorophenyl)-1-(2-methoxyethyl)piperidin-4-ol] | > 50 | 7 |
